According to patent publication US20090325202A1, “Methods for Developing and Assessing Therapeutic Agents” (priority 2006, published 2009):

Columns and labels:
[1] = system: primary human pancreatic cancer xenograft tumors; experiment: Tumor growth (RTG) in xenograft mouse models of primary human pancreatic cancer; format: in vivo, athymic (nu+/nu+) mice
Text: Four-week-old female athymic (nu+/nu+) mice were purchased from Harlan (Harlan Laboratories, Washington, D.C.). The research protocol was approved by the Johns Hopkins University Animal Care and Use Committee and animals were maintained in accordance to guidelines of the American Association of Laboratory Animal Care. Briefly, frozen pancreatic xenografts in first passage in mice, after being obtained from surgical specimens of patients undergoing pancreatic resection for adenocarcinoma at the Johns Hopkins Hospital were re-implanted subcutaneously in groups of 5 mice for each patient, with 2 small pieces per mouse (F2 generation). Tumors were allowed to grow to a size of 1.5 cm at which point they were harvested, divided into small ˜3×3×3 mm pieces, and transplanted to another 18-22 mice, with two tumors per mouse. Tumors from this second mouse-to-mouse passage were allowed to grow until reaching −200 mm^3, at which time mice were randomized in the following three treatment groups, with 6 mice in each group: control (vehicle), erlotinib (50 mg/kg/day i.p.), and temsirolimus (20 mg/kg days 1-5 i.p.). Mice were monitored daily for signs of toxicity and were weighed three times per week. Tumor size was evaluated three times per week by caliper measurements using the following formula: tumor volume=[length×width^2]/2 as previously reported (19). Relative tumor growth (RTG) was calculated by tumor growth of treated mice divided by tumor growth of control mice (T/C)×100. Experiments were terminated on day 28. Tumor response was defined as sensitive, when RTG was less than 50% on day 28.

[2] = system: Panc 265 human pancreas cancer xenograft; experiment: Panc 265 xenograft tumor growth; format: in vivo, nude mice; conditions: CCI-779 20 mg/kg days 1-5 i.p.
Text: Tumor tissue was then cut into slices (5×5×0.5−1 mm diameter) and implanted subcutaneously into nude mice. Tumor slices averaging 5×5×0.5−1 mm diameter from the patient, or 3×3×0.5−1 mm dia in serial passage were implanted subcutaneously into both flanks of nude mice. Tumors were removed under sterile conditions/laminar flow and reimplanted subcutaneously in groups of 5 mice. When the tumors on second passage of each group reached 1.5 cm, they were excised and cut into pieces of 3×3×3 mm, and transplanted on another 35-40 mice.
For the in vivo assessment experiments, treatment started when the mean tumor volumes reach approximately 200 mm.
To obtain cancer cells, each animal tumor was sampled as described above. […] At day 7 of therapy, AD/DQ slides were prepared from tumor FNAB samples to retrospectively correlate the results of in vivo and ex vivo chemosentitivty tests from the same xenograft animal.

S6 ribosomal protein [3] = experiment: Panc 265 xenograft FNAB cells treated ex vivo, S6 ribosomal protein phosphorylation; format: cell-based, human; conditions: Panc 265 FNAB cells; CCI-779 1 uM; 6 hours
Protocol: (§1) To obtain cancer cells, each animal tumor was sampled as described above. After collection of tumor FNAB samples, xenograft animals were subsequently treated with ZD1839 or CCI-779 for 28 days and tumor volumes were determined as described above. At day 7 of therapy, AD/DQ slides were prepared from tumor FNAB samples to retrospectively correlate the results of in vivo and ex vivo chemosentitivty tests from the same xenograft animal.
To determine viability of tumor cells obtained by FNAB, trypan blue dye exclusion assay was performed. The viability of tumor cells obtained by tumor FNAB from control animals was over 95%. Approximately 75,000 tumor cells were seeded into each well of a 6-well polypropylene microplate. Cells were treated in duplicates with vehicle (control) or with ZD1839 (5 uM) or CCI-779 (1 uM) in a humidified 5% CO2 incubator at 37° C. for different periods to determine the optimal treatment time to analyze drug effects.
(§2) After the treatment cells were collected, protein extracts were prepared and Western blot analysis was performed as described above. The ex vivo effect of ZD 1839 and CCI-779 on phosphorylation of ERK1/2 or S6 ribosomal proteins, respectively, was correlated with the in vivo data gathered from the FNAB smears prepared at day 7 of treatment.

S6 ribosomal protein [4] = experiment: Panc 265 xenograft in vivo FNAB smears, S6 ribosomal protein phosphorylation; parameters: species or system human; conditions: CCI-779 20 mg/kg days 1-5 i.p., FNAB day 7
Protocol: Animals were either untreated or treated with ZD1839: 150 mg/Kg daily or CCI-779: 20 mg/kg days 1-5 by intraperitoneal injection
as §1, §2

CO[C@H]1C[C@@H]2CC[C@@H](C)[C@@](O)(O2)C(=O)C(=O)N2CCCC[C@H]2C(=O)O[C@H]([C@H](C)C[C@@H]2CC[C@@H](OC(=O)C(C)(CO)CO)[C@H](OC)C2)CC(=O)[C@H](C)/C=C(\C)[C@@H](O)[C@@H](OC)C(=O)[C@H](C)C[C@H](C)/C=C/C=C/C=C/1C [temsirolimus, Temsirolimus]
relative growth (RTG) ([1]; all tumors except A194, temsirolimus 20 mg/kg days 1-5 i.p., day 28): less than 50%
tumor response ([1]; tumor A194): resistant (greater than 50% RTG and were defined as resistant)
tumor response ([1]; tumor A198): sensitive (Tumor response was defined as sensitive, when RTG was less than 50% on day 28)
inhibition of tumor growth [2]: 70%
activity (phosphorylation) of target protein S6 ribosomal protein ex vivo (S6 ribosomal protein [3]): successfully inhibited the activity of its target protein
target protein phosphorylation in vivo (S6 ribosomal protein [4]): strongly inhibited target protein phosphorylation
